The IC50 is the concentration needed to halve the response being measured.

Molecules are shown by their SMILES. Bounds are passed on as bounds.

The target in one experiment is CYP46A1 (Homo sapiens, UniProt Q9Y6A2). Nature of the experiment: CYP46A1 Enzyme Assay 2 (testosterone substrate, HPLC-MS). Type of experiment: biochemical.
Sequence of CYP46A1 (Q9Y6A2 whole entry): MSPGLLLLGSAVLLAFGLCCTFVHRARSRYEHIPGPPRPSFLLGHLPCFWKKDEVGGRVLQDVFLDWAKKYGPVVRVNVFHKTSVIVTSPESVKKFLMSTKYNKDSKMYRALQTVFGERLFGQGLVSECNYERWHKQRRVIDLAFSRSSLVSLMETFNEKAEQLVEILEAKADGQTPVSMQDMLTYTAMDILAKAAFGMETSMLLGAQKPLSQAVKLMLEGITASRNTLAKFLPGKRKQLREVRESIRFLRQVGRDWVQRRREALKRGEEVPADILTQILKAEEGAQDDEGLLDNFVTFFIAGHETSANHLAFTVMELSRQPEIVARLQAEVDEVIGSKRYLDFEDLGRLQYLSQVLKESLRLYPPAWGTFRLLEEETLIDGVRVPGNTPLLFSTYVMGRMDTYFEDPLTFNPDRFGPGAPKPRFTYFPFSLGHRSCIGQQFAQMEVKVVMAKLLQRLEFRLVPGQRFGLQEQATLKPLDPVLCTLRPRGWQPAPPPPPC
Details: not given
On the procedure:
Briefly, in a 384-well plate format, 10 μL per well of an enzyme-substrate mixture of CYP46A1 (5 μM final concentration) and Testosterone ([…] final concentration) were dispensed to wells containing test compound. For CYP46A1 titration, 5 μL per well of serially diluted CYP46A1 (concentrations including 10 μM, 5 μM, and 2.5 μM) and Testosterone (concentration of […]) were dispensed. For Testosterone titration, 5 μL per well of serially diluted Testosterone (concentrations including 10 μM, 5 μM, and 2.5 μM) and CYP46A1 (concentration of 5 μM) were dispensed. The plates were centrifuged at 1000 rpm for 30 seconds, and then sealed and incubated at 37° C. for 30 minutes. The plate was removed from the incubator, and then 10 μL per well of NADPH-generating system were dispensed to initiate the reaction. The plates were incubated at 37° C. for 15 minutes, added with 80 μL per well of 100% methanol consisting 1 ng/ml diclofenac as internal standard, and then transferred for HPLC-MS.
As to `N#CC1(c2ccccc2)CCN(C(=O)c2cccnc2-c2ccncn2)CC1` [Compound A256, 4-phenyl-1-(2-(pyrimidin-4-yl)nicotinoyl)piperidine-4-carbonitrile], the half-maximal inhibitory concentration (IC50) is greater than 1000 nM.

The experiment is the same for the next values; noted with them: read-out: IC50 (CYP46A1 inhibitory activity).
Consider `C[C@@H](c1c(F)cccc1F)C1(C#N)CCN(C(=O)c2cccnc2-c2ccncn2)CC1` [Compound A244, (R)-4-(1-(2,6-difluorophenyl)ethyl)-1-(2-(pyrimidin-4-yl)nicotinoyl)piperidine-4-carbonitrile], for which the IC50 was less than 100 nM.
For `N#C[C@@]1(Cc2ccc(F)cc2)CCN(C(=O)c2cccnc2-c2ccncn2)C1` [Compound A236, (S)-3-(4-fluorobenzyl)-1-(2-(pyrimidin-4-yl)nicotinoyl)pyrrolidine-3-carbonitrile], the IC50 was greater than 1000 nM.
For the compound `N#CC1(Cc2ccc(Cl)cc2C2CC2)CCN(C(=O)c2cccnc2-c2ccncn2)CC1` [Compound A231, 4-(4-chloro-2-cyclopropylbenzyl)-1-(2-(pyrimidin-4-yl)nicotinoyl)piperidine-4-carbonitrile], the IC50 is less than 100 nM.
As to `N#C[C@]1(Cc2ccc(F)cc2)CCN(C(=O)c2cccnc2-c2ccncn2)C1` [Compound A235, (R)-3-(4-fluorobenzyl)-1-(2-(pyrimidin-4-yl)nicotinoyl)pyrrolidine-3-carbonitrile], the IC50 was greater than 1000 nM.
Take `N#CC1(Cc2cccc(Cl)c2)CCN(C(=O)c2cccnc2-c2ccncn2)CC1` [Compound A210, 4-(3-chlorobenzyl)-1-(2-(pyrimidin-4-yl)nicotinoyl)piperidine-4-carbonitrile]: the IC50 was less than 100 nM.
Same read-out and setting: next, `N#CC1(Cc2ccc(F)cc2)CCN(C(=O)c2c(F)cccc2-c2ccncn2)CC1` [Compound A221, 1-(2-fluoro-6-(pyrimidin-4-yl)benzoyl)-4-(4-fluorobenzyl)piperidine-4-carbonitrile]: less than 100 nM.
Still for that read-out and setting: next, `C[C@H](c1ccc(F)cc1F)C1(C#N)CCN(C(=O)c2cccnc2-c2ccncc2)CC1` [Compound A237, (S)-1-([2,4′-bipyridine]-3-carbonyl)-4-(1-(2,4-difluorophenyl)ethyl)piperidine-4-carbonitrile]: less than 100 nM; `N#CC1(CCCc2ccccc2)CCN(C(=O)c2cccnc2-c2ccncc2)CC1` [Compound A71, 1-{[2,4′-bipyridine]-3-carbonyl}-4-(3-phenylpropyl)piperidine-4-carbonitrile]: less than 100 nM.
The same measure, in the same setting: next, `N#CC1(Cc2ccc(F)cc2)CCN(C(=O)c2cc(F)ccc2-c2ccncn2)CC1` [Compound A219, 1-(5-fluoro-2-(pyrimidin-4-yl)benzoyl)-4-(4-fluorobenzyl)piperidine-4-carbonitrile]: less than 100 nM; `N#CC1(Cc2cc(F)ccc2F)CCN(C(=O)c2cccnc2-c2ccncc2)CC1` [Compound A282, 1-([2,4′-bipyridine]-3-carbonyl)-4-(2,5-difluorobenzyl)piperidine-4-carbonitrile]: less than 100 nM.
For the compound `N#CC1(Cc2cccc(F)c2F)CCN(C(=O)c2cccnc2-c2ccncn2)CC1` [Compound A209, 4-(2,3-difluorobenzyl)-1-(2-(pyrimidin-4-yl)nicotinoyl)piperidine-4-carbonitrile], the IC50 was less than 100 nM.
With `C[C@@H](c1ccc(F)cc1F)C1(C#N)CCN(C(=O)c2cccnc2-c2ccncc2)CC1` [Compound A238, (R)-1-([2,4′-bipyridine]-3-carbonyl)-4-(1-(2,4-difluorophenyl)ethyl)piperidine-4-carbonitrile], the IC50 is less than 100 nM.
With `N#CC1(Cc2cnc(C(F)(F)F)nc2)CCN(C(=O)c2cccnc2-c2ccncn2)CC1` [Compound A239, 1-(2-(pyrimidin-4-yl)nicotinoyl)-4-((2-(trifluoromethyl)pyrimidin-5-yl)methyl)piperidine-4-carbonitrile], the IC50 was greater than 1000 nM.
As for `N#CC1(Cc2ccc(F)cc2)CCN(C(=O)c2cccnc2-c2cnco2)CC1` [Compound A56, 4-(4-fluorobenzyl)-1-(2-(oxazol-5-yl)nicotinoyl)piperidine-4-carbonitrile], the IC50 was 100 to 1000 nM.
`N#C[C@]1(Cc2ccc(F)cc2)[C@@H]2CC[C@H]1CN(C(=O)c1cccnc1-c1ccncn1)C2` [Compound A253, (1R,5S,8r)-8-(4-fluorobenzyl)-3-(2-(pyrimidin-4-yl)nicotinoyl)-3-azabicyclo[3.2.1]octane-8-carbonitrile]: the IC50 is greater than 1000 nM.
For `N#CC1(Cc2ccc(F)cc2)CCN(C(=O)c2cccnc2-c2cncnc2)CC1` [Compound A66, 4-(4-fluorobenzyl)-1-(2-(pyrimidin-5-yl)nicotinoyl)piperidine-4-carbonitrile], the IC50 lay in the range of 100 to 1000 nM.
Same read-out and setting: to `N#CC1(Cc2ccncc2)CCN(C(=O)c2cccnc2-c2ccncc2)CC1` [Compound A65, 1-([2,4′-Bipyridine]-3-carbonyl)-4-(pyridin-4-ylmethyl)piperidine-4-carbonitrile] belongs 100 to 1000 nM; to `N#CC1(Cc2c(F)cc(F)cc2F)CCN(C(=O)c2cccnc2-c2ccncn2)CC1` [Compound A263, 1-(2-(pyrimidin-4-yl)nicotinoyl)-4-(2,4,6-trifluorobenzyl)piperidine-4-carbonitrile], less than 100 nM; to `CC(c1ccc(C(F)(F)F)cc1)C1(C#N)CCN(C(=O)c2cccnc2-c2ccncc2)CC1` (stereo in doubt) [Compound A269, (S)-1-([2,4′-bipyridine]-3-carbonyl)-4-(1-(4-(trifluoromethyl)phenyl)ethyl)piperidine-4-carbonitrile], less than 100 nM.
Regarding `N#CC1(Cc2ccc(C3CC3)cc2)CCN(C(=O)c2cccnc2-c2ccncn2)CC1` [Compound A212, 4-(4-cyclopropylbenzyl)-1-(2-(pyrimidin-4-yl)nicotinoyl)piperidine-4-carbonitrile], the IC50 was less than 100 nM.
`N#CC1(Cc2cccc(C(F)(F)F)c2)CCN(C(=O)c2cccnc2-c2ccncn2)CC1` [Compound A264, 1-(2-(pyrimidin-4-yl)nicotinoyl)-4-(3-(trifluoromethyl)benzyl)piperidine-4-carbonitrile]: the IC50 was less than 100 nM.
Regarding `N#CC1(Cc2c(F)cccc2F)CCN(C(=O)c2cccnc2-c2ccncc2)CC1` [Compound A274, 1-([2,4′-bipyridine]-3-carbonyl)-4-(2,6-difluorobenzyl)piperidine-4-carbonitrile], the IC50 is less than 100 nM.
With `N#CC1(Cc2cccc(F)c2)CCN(C(=O)c2cccnc2-c2ccncc2)CC1` [Compound A13, 1-{[2,4′-bipyridine]-3-carbonyl}-4-[(3-fluorophenyl)methyl]piperidine-4-carbonitrile], the IC50 was less than 100 nM.
On the same count and under the same terms, next, `N#CC1(Cc2cc(C(F)(F)F)ccc2F)CCN(C(=O)c2cccnc2-c2ccncn2)CC1` [Compound A273, 4-(2-fluoro-5-(trifluoromethyl)benzyl)-1-(2-(pyrimidin-4-yl)nicotinoyl)piperidine-4-carbonitrile]: less than 100 nM; `N#CC1(Cc2ccc(F)cc2)CCN(C(=O)c2cc(C3CC3)ccc2-c2ccncn2)CC1` [Compound A254, 1-(5-cyclopropyl-2-(pyrimidin-4-yl)benzoyl)-4-(4-fluorobenzyl)piperidine-4-carbonitrile]: less than 100 nM; `N#CC1(Cc2ccc(Cl)cc2Br)CCN(C(=O)c2cccnc2-c2ccncn2)CC1` [Compound A232, 4-(2-bromo-4-chlorobenzyl)-1-(2-(pyrimidin-4-yl)nicotinoyl)piperidine-4-carbonitrile]: less than 100 nM.
As for `N#CC1(Cc2ccccc2C2CC2)CCN(C(=O)c2cccnc2-c2ccncn2)CC1` [Compound A214, 4-(2-cyclopropylbenzyl)-1-(2-(pyrimidin-4-yl)nicotinoyl)piperidine-4-carbonitrile], the IC50 was less than 100 nM.
Take `N#CC1(Cc2ccc(F)c(C(F)(F)F)c2)CCN(C(=O)c2cccnc2-c2ccncn2)CC1` [Compound A267, 4-(4-fluoro-3-(trifluoromethyl)benzyl)-1-(2-(pyrimidin-4-yl)nicotinoyl)piperidine-4-carbonitrile]: the IC50 was less than 100 nM.
Turning to `N#CC1(Cc2ccc(F)cc2)CCN(C(=O)c2cccnc2-n2ccnc2)CC1` [Compound A16, 1-(2-(1H-imidazol-1-yl)nicotinoyl)-4-(4-fluorobenzyl)piperidine-4-carbonitrile], the IC50 is greater than 1000 nM.
Turning to `CC(c1cc(F)cc(F)c1)C1(C#N)CCN(C(=O)c2cccnc2-c2ccncn2)CC1` (stereo in doubt) [Compound A257, (S)-4-(1-(3,5-difluorophenyl)ethyl)-1-(2-(pyrimidin-4-yl)nicotinoyl)piperidine-4-carbonitrile], the IC50 was less than 100 nM.
Still for that read-out and setting: to `Cc1ccc(CC2(C#N)CCN(C(=O)c3cccnc3-c3ccncn3)CC2)cn1` [Compound A201, 4-((6-methylpyridin-3-yl)methyl)-1-(2-(pyrimidin-4-yl)nicotinoyl)piperidine-4-carbonitrile] belongs less than 100 nM; to `N#CC1(Cc2ccc(F)cc2)CCN(C(=O)c2cccnc2-c2cccnc2)CC1` [Compound A18, 1-([2,3′-bipyridine]-3-carbonyl)-4-(4-fluorobenzyl)piperidine-4-carbonitrile], greater than 1000 nM; to `N#Cc1ccc(CC2(C#N)CCN(C(=O)c3cccnc3-c3ccncc3)CC2)cc1` [Compound A27, 1-([2,4′-bipyridine]-3-carbonyl)-4-(4-cyanobenzyl)piperidine-4-carbonitrile], less than 100 nM.
In the case of `CC(C)(O)c1ccc(CC2(C#N)CCN(C(=O)c3cccnc3-c3ccncn3)CC2)cc1` [Compound A223, 4-(4-(2-hydroxypropan-2-yl)benzyl)-1-(2-(pyrimidin-4-yl)nicotinoyl)piperidine-4-carbonitrile], the IC50 lay in the range of 100 to 1000 nM.
